The source of these data is US12226404B2, “Methods for making compositions for pulmonary administration” (Board of Regents, the University of Texas System, priority 2007, dated 2025).

≈ marks a conversion by molar mass, not a printed value. Where “and” joins values, the source holds several entries; their conditions need not be identical. Identical values can stand only once.

Data set [1] is described as follows: Evaluation of rodent dosing apparatus with nebulized ITZ colloidal suspension, in vivo lung concentration. Also on record: species or system outbred ICR mice. The settings on record: individual mice, 5 min nebulization. An excerpt: As used herein, the term “pre-clinical rodent dosing apparatus” refers to the apparatus reported by J. T. McConville, P. Sinswat, J. Tam, K. P. Johnston and R. O. Williams III, In vitro and in vivo validation of a high-concentration pre-clinical rodent dosing apparatus for inhalation, Proceedings of the American Association of Pharmaceutical Scientists, San Antonio, TX, October, 2006, relevant portions incorporated herein by reference. An animal dosing chamber was designed which consisted of hollow tubing (20×4.5 cm; nominal wall thickness of 0.4 cm) with four 1.75 cm adapter holes drilled at 7 cm intervals (2 holes along each side). The adapter holes were constructed to accept rodent restraint tubes from the Battelle® toxicology testing unit. A standard itraconazole (ITZ) colloidal suspension was nebulized into the apparatus for 5 minutes using a micro-pump nebulizer. Atomized droplets containing ITZ were driven into the chamber at a flow rate of 1 L/min. ITZ concentrations were measured in vitro at the 4 adapter ports, and in vivo from the lungs of 8 outbred-ICR mice in the appropriate mice restraining tubes at the adapter ports.
Example 11. […] ITZ concentrations were measured in vitro at the 4 adapter ports, and in vivo from the lungs of male outbred ICR mice in the appropriate mice restraining tubes at the adapter ports. […]

Data set [2] in a line: Equilibrium solubility of TAC in modified simulated lung fluid with 0.02% DPPC. The format is physicochemical. The settings on record: modified simulated lung fluid (SLF) with 0.02% DPPC, 37 °C, fassgf or other biorelevant, thermodynamic from solid, modified simulated lung fluid 0.02% DPPC.
Data set [3] can be described thus: BET specific surface area analysis. The format is physicochemical. As for the experimental part: As used herein, the term “BET Analysis” refers to a method for measuring the surface area of the exposed surface of a solid sample on the molecular scale. The BET (Brunauer, Emmet, and Teller) theory is typically used to determine the area of solids. Commonly, samples are prepared by heating and simultaneously evacuating or flowing gas over the sample to remove the liberated impurities. The prepared samples are then cooled with liquid nitrogen and analyzed by measuring the volume of gas (typically N2 or Kr) adsorbed at specific pressures. Krypton gas is often used when the measured surface is expected to be less than 2 m^2/g (typically pharmaceutical samples and natural organic materials). The skilled artisan will recognize that several types of instruments may be used for measuring surface area, which depends upon the extent of the surface or the gas required to achieve the best results. […]
BET Specific Surface Area Analysis. Specific surface area was measured using a Nova 2000 v. […] The data recorded were then analyzed according to BET theory using NOVA Enhanced Data Reduction Software v. […]
Example 3. […] Specific surface area was measured using a Nova 2000 v 6.11 instrument (Quantachrome Instruments, Boynton Beach, FL). […] The data recorded were then analyzed according to BET theory using NOVA Enhanced Data Reduction Software v. […]

The conditions of data set [4]: adult patients; cited from earlier work.
The nature of data set [5]: Dissolution testing below equilibrium solubility (sink) in modified simulated lung fluid with 0.02% DPPC. It is filed as physicochemical. To be noted: SLF 0.02% DPPC. As for the experimental part:
Dissolution Testing at Below Equilibrium Solubility. Dissolution testing at below equilibrium solubility was performed on the URF powder samples using a United States Pharmacopeia (USP) 27 Type 2 dissolution apparatus (VanKel VK6010 Dissolution Tester with a Vanderkamp VK650A heater/circulator, Varian, Inc. Palo Alto, CA). […] The dissolution media was maintained at 37.0±0.2° C. and stirred at a constant rate of 50 rpm. Samples (1 mL) were withdrawn at 10, 20, 30, 60 and 120 minute time points, filtered using a 0.45 μm GHP Acrodisc filter (VWR, Inc., West Chester, PA) and analyzed using a Shimadzu LC-10 liquid chromatograph (Shimadzu Corporation, Kyoto, Japan) equipped with an Alltech ODS-2, 5 μm C18 column (Alltech Associates, Inc., Deerfield, IL). The mobile phase consisted of a 70:30 (v/v) ACN: Water mixture, used at a flow rate of 1 mL/min. The maximum absorbance was measured at wavelength λmax=214 nm.
Example 5. […] Samples (1 mL) were withdrawn at 10, 20, 30, 60, and 120 minute time points, filtered using a 0.45 μm GHP Acrodisc filter (VWR, Inc. Westchester, PA), and analyzed using a Shimadzu LC-10 liquid chromatograph (Shimadzu Corporation, Kyoto, Japan) equipped with an Altech ODS-2, 5 μm C18 column (Altech Associates, Deerfield, IL). […] The maximum absorbance was measured at wavelength λ=214 nm.

As for `CCC(C)n1ncn(-c2ccc(N3CCN(c4ccc(OCC5COC(Cn6cncn6)(c6ccc(Cl)cc6Cl)O5)cc4)CC3)cc2)c1=O` (stereo not shown) [ITZ, itraconazole], the “ITZ Conc. in Lung Tissue” value in data set [1] was 21.6 µg/g and 20.2 µg/g and 18.3 µg/g and 13.5 µg/g and 15.9 µg/g and 18.6 µg/g and 19.2 µg/g and 22.7 µg/g.
For the compound `C=CC[C@@H]1/C=C(\C)C[C@H](C)C[C@H](OC)[C@H]2O[C@@](O)(C(=O)C(=O)N3CCCC[C@H]3C(=O)O[C@H](/C(C)=C/[C@@H]3CC[C@@H](O)[C@H](OC)C3)[C@H](C)[C@@H](O)CC1=O)[C@H](C)C[C@@H]2OC` [unprocessed TAC, Tacrolimus], the thermodynamic solubility in data set [2] was ~6.8 µg/mL (≈ 8.46 µM). Besides, the “Specific Surface Area” value in data set [3] (Table 2) was determined as 0.533 m^2/g. The “Surface Area (BET)” value in data set [3] (URF study, Table 4) was determined as 0.53 m^2/g. Further, the average oral bioavailability entry in data set [4] is “approximately 25%”. Further, the “dissolution of TAC” value was 30% in data set [5] (at 1 hr, 37° C.) and 30% in data set [5] (in 30 minutes, sink conditions).

As usually defined, the solubility (thermodynamic) is the concentration in solution at equilibrium with solid.
